In ChEMBL document CHEMBL1153832, “Identification and characterization of UK-201844, a novel inhibitor that interferes with human immunodeficiency virus type 1 gp160 processing” (Antimicrob Agents Chemother, 2007):
Calls of active or inactive are those of the source. No cut-off for these calls is given here.

Experiments:
[1] = Therapeutic index, ratio of CC50 for human MT2 cells to EC50 for HIV1 Ba-L; type: cell-based; details: read-out: TI
[2] = system: Human immunodeficiency virus 1; test: Ratio of EC50 for recombinant HIV1 NL4-3 bearing envelope with D474N substitution to EC50 for parental HIV1 NL4-3; type: functional
[3] = system: Human immunodeficiency virus 1; test: Ratio of EC50 for recombinant HIV1 NL4-3 bearing envelope with V372E substitution to EC50 for parental HIV1 NL4-3; type: functional
[4] = system: Human immunodeficiency virus 1; test: Antiviral activity against recombinant HIV1 NL4/3BCt chimeric virus infected in human MT2 cells assessed as inhibition of virus-induced CPE; type: functional, organism-based; details: Human immunodeficiency virus 1, NL4/3BCt
[5] = system: Human immunodeficiency virus 1; test: Antiviral activity against recombinant HIV1 NL4-3 bearing envelope with G354E, V372E, D474N substitutions infected in human MT2 cells by virus production assay; type: functional, organism-based
[6] = system: Human immunodeficiency virus 1; test: Antiviral activity against recombinant HIV1 NL4-3 bearing envelope with V372E substitution infected in human MT2 cells by virus production assay; type: functional, organism-based
[7] = system: Human immunodeficiency virus 1; test: Ratio of EC50 for recombinant HIV1 NL4-3/3B5'Env chimeric virus to EC50 for parental HIV1 NL4-3 virus; type: functional
[8] = system: Human immunodeficiency virus 1; test: Antiviral activity against recombinant HIV1 NL4-3 bearing envelope with V372E, D474N substitutions infected in human MT2 cells by virus production assay; type: functional, organism-based
[9] = system: Human immunodeficiency virus 1; test: Antiviral activity against recombinant HIV1 NL4-3 bearing envelope with S162N, N302Y substitutions infected in human MT2 cells by virus production assay; type: functional, organism-based
[10] = system: Human immunodeficiency virus 1; test: Antiviral activity against HIV1 NL4-3 infected in human 174XCEM T-cells; type: functional, organism-based
[11] = Therapeutic index, ratio of CC50 for human PM1 cells to EC50 for HIV1 NL4-3; type: cell-based; details: read-out: TI
[12] = system: Human immunodeficiency virus 1; test: Antiviral activity against recombinant HIV1 NL4-3 bearing envelope with G354E substitution infected in human MT2 cells by virus production assay; type: functional, organism-based
[13] = system: Human immunodeficiency virus 1; test: Ratio of EC50 for recombinant HIV1 NL4-3 bearing envelope with G354E, V372E, D474N substitutions to EC50 for parental HIV1 NL4-3; type: functional
[14] = system: Human immunodeficiency virus 1; test: Antiviral activity against HIV1 clade-B clinical isolate up to its cytotoxic concentration; type: functional, organism-based
[15] = system: Human immunodeficiency virus 1; test: Antiviral activity against recombinant HIV1 NL4-3 bearing envelope with S162N, N302Y, G354E, V372E, D474N substitutions infected in human MT2 cells by virus production assay; type: functional, organism-based
[16] = system: Human immunodeficiency virus 1; test: Antiviral activity against recombinant HIV1 NL4-3 bearing envelope with D474N substitution infected in human MT2 cells by virus production assay; type: functional, organism-based
[17] = Therapeutic index, ratio of CC50 for human MT2 cells to EC50 for HIV1 NL4-3; type: cell-based; details: read-out: TI
[18] = system: Human immunodeficiency virus 1; test: Antiviral activity against HIV1 NL4-3 transfected in HEK293 cells assessed as inhibition of viral envelope gp160 processing at 0.5 uM by Western blot; type: functional; details: Human immunodeficiency virus 1, NL4-3, HEK293
[19] = system: Human immunodeficiency virus 1; test: Ratio of EC50 for recombinant HIV1 NL4-3/3BCt chimeric virus to EC50 for parental HIV1 NL4-3 virus; type: functional
[20] = Cytotoxicity against human PM1 cells after 6 days by XTT assay; type: cell-based
[21] = system: Human immunodeficiency virus 1; test: Ratio of EC50 for recombinant HIV1 NL4-3 bearing envelope with S162N, N302Y substitutions to EC50 for parental HIV1 NL4-3; type: functional
[22] = system: Human immunodeficiency virus 1; test: Ratio of EC50 for recombinant HIV1 NL4-3 bearing envelope with S162N, N302Y, G354E, V372E, D474N substitutions to EC50 for parental HIV1 NL4-3; type: functional
[23] = system: Human immunodeficiency virus 1; test: Antiviral activity against recombinant HIV1 NL4-3 bearing envelope with G354E, D474N substitutions infected in human MT2 cells by virus production assay; type: functional, organism-based
[24] = system: Human immunodeficiency virus 1; test: Antiviral activity against HIV1 NL4-3 infected in human CEM-T4 cells; type: functional, organism-based
[25] = system: Human immunodeficiency virus 1; test: Antiviral activity against parental HIV1 NL4-3 infected in human MT2 cells by virus production assay; type: functional, organism-based; details: Human immunodeficiency virus 1, NL4-3, MT2
[26] = system: Human immunodeficiency virus 1; test: Ratio of EC50 for recombinant HIV1 NL4-3 bearing envelope with V372E, D474N substitutions to EC50 for parental HIV1 NL4-3; type: functional
[27] = molecular target: T1, Proprotein convertase subtilisin/kexin type 6 (Rattus norvegicus) (UniProt Q63415); test: Inhibition of rat PACE4 up to 100 uM
T1 sequence (whole entry): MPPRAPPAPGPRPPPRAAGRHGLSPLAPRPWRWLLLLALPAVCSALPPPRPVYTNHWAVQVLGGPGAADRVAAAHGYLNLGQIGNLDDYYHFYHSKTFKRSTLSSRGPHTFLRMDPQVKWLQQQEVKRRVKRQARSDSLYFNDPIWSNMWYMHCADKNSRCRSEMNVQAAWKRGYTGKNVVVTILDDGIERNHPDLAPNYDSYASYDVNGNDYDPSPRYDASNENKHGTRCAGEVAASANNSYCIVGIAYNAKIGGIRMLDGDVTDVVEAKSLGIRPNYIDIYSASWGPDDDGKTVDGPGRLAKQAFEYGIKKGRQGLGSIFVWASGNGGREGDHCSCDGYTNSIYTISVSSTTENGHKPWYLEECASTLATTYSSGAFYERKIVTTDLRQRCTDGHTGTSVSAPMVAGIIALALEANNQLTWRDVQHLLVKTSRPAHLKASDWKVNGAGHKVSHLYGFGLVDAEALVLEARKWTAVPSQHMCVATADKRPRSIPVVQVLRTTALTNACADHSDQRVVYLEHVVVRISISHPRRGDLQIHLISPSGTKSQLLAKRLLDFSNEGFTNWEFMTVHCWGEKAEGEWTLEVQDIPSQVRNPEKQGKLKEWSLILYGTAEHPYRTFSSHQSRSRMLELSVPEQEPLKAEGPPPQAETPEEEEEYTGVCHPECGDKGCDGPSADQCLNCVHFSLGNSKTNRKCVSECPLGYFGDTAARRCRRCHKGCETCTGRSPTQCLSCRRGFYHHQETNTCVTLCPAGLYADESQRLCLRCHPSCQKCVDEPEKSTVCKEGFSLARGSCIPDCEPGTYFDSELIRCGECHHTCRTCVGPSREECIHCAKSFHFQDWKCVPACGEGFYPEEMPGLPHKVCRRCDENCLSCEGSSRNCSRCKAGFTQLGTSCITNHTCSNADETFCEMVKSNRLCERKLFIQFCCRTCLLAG

[28] = system: Human immunodeficiency virus 1; test: Antiviral activity against HIV1 NL4-3 transfected in HEK293 cells assessed as inhibition of viral envelope gp160 processing at 1.0 uM by Western blot; type: functional; details: Human immunodeficiency virus 1, NL4-3, HEK293
[29] = system: Human immunodeficiency virus 1; test: Inhibition of HIV1 NL4-3 proteins incorporation into virions transfected in HEK293 cells assessed as aberrant Env protein at 15 uM by Western blot; type: functional, organism-based
[30] = molecular target: Furin (Homo sapiens) (UniProt P09958); test: Inhibition of human recombinant furin up to 100 uM
[31] = system: Human immunodeficiency virus 1; test: Antiviral activity against recombinant HIV1 NL4-3 bearing envelope with G354E, V372E substitutions infected in human MT2 cells by virus production assay; type: functional, organism-based

Chain of Furin (Homo sapiens) (P09958 whole entry): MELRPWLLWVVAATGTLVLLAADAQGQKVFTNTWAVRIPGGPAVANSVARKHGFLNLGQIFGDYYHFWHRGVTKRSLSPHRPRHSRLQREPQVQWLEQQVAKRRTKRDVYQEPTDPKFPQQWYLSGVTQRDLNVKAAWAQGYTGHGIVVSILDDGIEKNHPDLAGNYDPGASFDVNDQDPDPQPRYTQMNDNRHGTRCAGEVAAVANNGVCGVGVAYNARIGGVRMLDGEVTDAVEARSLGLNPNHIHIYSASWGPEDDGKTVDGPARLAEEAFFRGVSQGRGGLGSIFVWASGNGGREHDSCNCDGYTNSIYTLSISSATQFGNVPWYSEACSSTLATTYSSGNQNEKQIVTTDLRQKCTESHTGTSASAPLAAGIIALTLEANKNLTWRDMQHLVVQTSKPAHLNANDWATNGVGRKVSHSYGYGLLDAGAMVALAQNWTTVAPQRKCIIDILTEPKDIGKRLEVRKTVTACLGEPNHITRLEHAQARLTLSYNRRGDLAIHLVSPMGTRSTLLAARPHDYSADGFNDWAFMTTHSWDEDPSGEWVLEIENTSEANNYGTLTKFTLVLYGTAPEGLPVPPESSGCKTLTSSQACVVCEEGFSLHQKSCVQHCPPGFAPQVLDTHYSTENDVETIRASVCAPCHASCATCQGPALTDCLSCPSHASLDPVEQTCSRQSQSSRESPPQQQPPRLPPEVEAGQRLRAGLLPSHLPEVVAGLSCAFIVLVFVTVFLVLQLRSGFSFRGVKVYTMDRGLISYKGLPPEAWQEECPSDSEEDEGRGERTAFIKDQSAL

## NC(=O)C(c1ccccc1)(c1ccccc1)[C@H]1CCCN(CCc2ccc3c(c2)CCO3)C1
[1]
  selectivity ratio: 2
[2]
  fold change (FC): 6
[3]
  fold change (FC): 0.9
[4]
  EC50: 5.3 µM
[5]
  EC50: > 32 µM
[6]
  EC50: 0.9 µM
[7]
  fold change (FC): >25
[8]
  EC50: > 32 µM
[9]
  EC50: 8.6 µM
[10]
  EC50: Active
[11]
  selectivity ratio: 17
[12]
  EC50: 0.9 µM
[13]
  fold change (FC): >31
[14]
  Activity: inactive
[15]
  EC50: > 32 µM
[16]
  EC50: 6.1 µM
[17]
  selectivity ratio: 41
[18]
  inhibition at 0.5 µM: 12%
[19]
  fold change (FC): 4
[20]
  CC50 at 144 h: 47 µM
[21]
  fold change (FC): 8.3
[22]
  fold change (FC): >31
[23]
  EC50: > 32 µM
[24]
  EC50: Active
[25]
  EC50: 1.03 µM
[26]
  fold change (FC): >31
[27]
  Activity: inactive
[28]
  inhibition at 1 µM: 44%
[29]
  Activity: Active
[30]
  Activity: inactive
[31]
  EC50: 2.2 µM
